Reference: patent US20240166652A1, “MODULATORS OF THE INTEGRATED STRESS PATHWAY” (Calico Life Sciences LLC, priority 2017, published 2024)

Tested on: ATF4 luciferase reporter in HEK293T cells
Assay: ATF4-Luc assay (ATF4 luciferase reporter, tunicamycin-treated HEK293T cells)
Assay type: cell-based, human
Details: Homo sapiens, HEK-293T; HEK293T cells carrying the ATF4 luciferase reporter, 1 μg/mL tunicamycin, 7 hours

O=C(COc1ccc(OC(F)(F)F)cc1)NC12CCC(NC(=O)COc3ccc(F)c(F)c3)(CC1)[C@@H](O)C2 [Compound 784, 2-(3,4-difluorophenoxy)-N-[(2S)-2-hydroxy-4-{2-[4-(trifluoromethoxy)phenoxy]acetamido}bicyclo[2.2.2]octan-1-yl]acetamide]
EC50: < 10 nM

O=C(COc1ccc(F)c(F)c1)NC12CCC(NC(=O)COc3ccc(F)c(OC(F)(F)F)c3)(CC1)[C@@H](O)C2 [Compound 812, 2-(3,4-difluorophenoxy)-N-[(3S)-4-{2-[4-fluoro-3-(trifluoromethoxy)phenoxy]acetamido}-3-hydroxybicyclo[2.2.2]octan-1-yl]acetamide]
EC50: < 10 nM

O=C(COc1ccc(Cl)cc1)NC12CCC(NC(=O)COc3ccc(F)cc3)(CC1)[C@@H](O)C2 [Compound 614, 2-(4-chlorophenoxy)-N-{(3S)-4-[2-(4-fluorophenoxy)acetamido]-3-hydroxybicyclo[2.2.2]octan-1-yl}acetamide]
EC50: < 10 nM

CS(=O)(=O)c1cc(F)ccc1OCC(=O)NC12CCC(NC(=O)COc3ccc(Cl)c(F)c3)(CC1)[C@@H](O)C2 [Compound 751, 2-(4-chloro-3-fluorophenoxy)-N-[(2S)-4-{2-[4-fluoro-2-(methanesulfonyl)phenoxy]acetamido}-2-hydroxybicyclo[2.2.2]octan-1-yl]acetamide]
EC50: > 2000 nM

O=C(COc1ccc(Cl)c(Cl)c1)NC12CC(NC(=O)OCCCc3cccc(Cl)c3)(C1)C2 [Compound 174, 3-(3-chlorophenyl)propyl {3-[2-(3,4-dichlorophenoxy)acetamido]-bicyclo[1.1.1]pentan-1-yl}carbamate]
EC50: 250 to 500 nM

O=C(COc1ccc(F)cc1)NC12CCC(NC(=O)COc3ccc(F)c(C(F)(F)F)c3)(CC1)[C@@H](O)C2 [Compound 831, 2-(4-fluorophenoxy)-N-[(3S)-4-{2-[4-fluoro-3-(trifluoromethyl)phenoxy]acetamido}-3-hydroxybicyclo[2.2.2]octan-1-yl]acetamide]
EC50: < 10 nM

O=C(COc1ccc(Cl)c(F)c1)NC12CCC(O)C(NC(=O)COc3ccc(Cl)c(F)c3)(CC1)C2 (centres unmarked) [Compound 670, N,N′-(2-hydroxybicyclo[3.2.1]octane-1,5-diyl)bis[2-(4-chloro-3-fluorophenoxy)acetamide]]
EC50: 500 to 2000 nM

O=C(COc1ccc(Cl)c(F)c1)NC12CC(NC(=O)COc3ccnn(CC(F)(F)F)c3=O)(C1)C2 [Compound 309, 2-(4-chloro-3-fluorophenoxy)-N-[3-(2-{[3-oxo-2-(2,2,2-trifluoroethyl)-2,3-dihydropyridazin-4-yl]oxy}acetamido)bicyclo[1.1.1]pentan-1-yl]acetamide]
EC50: 50 to 250 nM

COc1ccc(OCC(=O)NC23CC(NC(=O)COc4ccc5c(c4)OC(F)(F)O5)(C2)C3)cn1 [Compound 271, 2-[(2,2-difluoro-2H-1,3-benzodioxol-5-yl)oxy]-N-(3-{2-[(6-methoxypyridin-3-yl)oxy]acetamido}bicyclo[1.1.1]pentan-1-yl)acetamide]
EC50: 10 to 50 nM

O=C(COc1ccc(Cl)cc1)NC12CCC(NC(=O)COc3ccc4c(c3)OC(F)(F)O4)(CC1)CC2 [Compound 742, 2-(4-chlorophenoxy)-N-(4-{2-[(2,2-difluoro-2H-1,3-benzodioxol-5-yl)oxy]acetamido}bicyclo[2.2.2]octan-1-yl)acetamide]
EC50: < 10 nM

O=C(/C=C/c1ccc(Cl)c(Cl)c1)NC12CC(NC(=O)/C=C/c3ccc(Cl)c(Cl)c3)(C1)C2 [Compound 367, (2E,2′E)-N,N′-(bicyclo[1.1.1]pentane-1,3-diyl)bis[3-(3,4-dichlorophenyl)prop-2-enamide]]
EC50: > 2000 nM

Cc1ccc(OCC(=O)NC23CCC(NC(=O)COc4ccc(Cl)cc4)(CC2)[C@@H](O)C3)cc1F [Compound 732, 2-(4-chlorophenoxy)-N-{(2S)-4-[2-(3-fluoro-4-methylphenoxy)acetamido]-2-hydroxybicyclo[2.2.2]octan-1-yl}acetamide]
EC50: < 10 nM

O=C(COCCc1cccc(F)c1)NC12CC(NC(=O)COc3ccc(Cl)c(Cl)c3)(C1)C2 [Compound 150, 2-(3,4-dichlorophenoxy)-N-(3-{2-[2-(3-fluorophenyl)ethoxy]acetamido}-bicyclo[1.1.1]pentan-1-yl)acetamide]
EC50: 10 to 50 nM

O=C(COc1ccc(Cl)c(F)c1)NC12CC(NC(=O)COc3cnc(Cl)c(F)c3)(C1)C2 [Compound 227, 2-(4-chloro-3-fluorophenoxy)-N-(3-{2-[(6-chloro-5-fluoropyridin-3-yl)oxy]acetamido}bicyclo[1.1.1]pentan-1-yl)acetamide]
EC50: < 10 nM

O=C(COc1ccc(Cl)c(F)c1)NC12CC(NC(=O)COc3cnn(CC(F)(F)F)c(=O)c3)(C1)C2 [Compound 310, 2-(4-chloro-3-fluorophenoxy)-N-[3-(2-{[6-oxo-1-(2,2,2-trifluoroethyl)-1,6-dihydropyridazin-4-yl]oxy}acetamido)bicyclo[1.1.1]pentan-1-yl]acetamide]
EC50: 50 to 250 nM

O=C(COc1ccc(Cl)c(F)c1)NC12CC(NC(=O)Cc3cccc(OC(F)(F)F)c3)(C1)C2 [Compound 361, 2-(4-chloro-3-fluorophenoxy)-N-(3-{2-[3-(trifluoromethoxy)phenyl]acetamido}bicyclo[1.1.1]pentan-1-yl)acetamide]
EC50: > 2000 nM

COc1cncc(OCC(=O)NC23CCC(NC(=O)COc4ccc(Cl)c(F)c4)(CC2)[C@@H](O)C3)c1 [Compound 675, 2-(4-chloro-3-fluorophenoxy)-N-[(2S)-2-hydroxy-4-{2-[(5-methoxypyridin-3-yl)oxy]acetamido}bicyclo[2.2.2]octan-1-yl]acetamide]
EC50: 10 to 50 nM

N#Cc1cc(OCC(=O)NC23CC(NC(=O)COc4ccc(Cl)c(F)c4)(C2)C3)ccn1 [Compound 277, 2-(4-chloro-3-fluorophenoxy)-N-(3-{2-[(2-cyanopyridin-4-yl)oxy]acetamido}bicyclo[1.1.1]pentan-1-yl)acetamide]
EC50: 250 to 500 nM

O=C(COCc1ccc(F)cc1)NC12CC(NC(=O)COc3ccc(Cl)c(Cl)c3)(C1)C2 [Compound 157, 2-(3,4-dichlorophenoxy)-N-(3-{2-[(4-fluorophenyl)methoxy]acetamido}-bicyclo[1.1.1]pentan-1-yl)acetamide]
EC50: 10 to 50 nM

COC(=O)[C@@H]1CC2(NC(=O)COc3ccc(Cl)c(F)c3)CCC1(NC(=O)COc1ccc(Cl)c(F)c1)CC2 [Compound 563, methyl (2R)-1,4-bis[2-(4-chloro-3-fluorophenoxy)acetamido]bicyclo[2.2.2]octane-2-carboxylate]
EC50: < 10 nM

CN(C)c1ccc(CCOCC(=O)NC23CC(NC(=O)COc4ccc(Cl)c(F)c4)(C2)C3)cc1 [Compound 143, 2-(4-chloro-3-fluorophenoxy)-N-[3-(2-{2-[4-(dimethylamino)phenyl]ethoxy}-acetamido)bicyclo[1.1.1]pentan-1-yl]acetamide]
EC50: > 2000 nM

O=C(COc1ccc(Cl)c(F)c1)NC12CCC(NC(=O)COc3cc(-c4ccccc4)n(-c4ccccc4)n3)(CC1)[C@@H](O)C2 [Compound 513, 2-(4-chloro-3-fluorophenoxy)-N-[(3S)-4-{2-[(1,5-diphenyl-1H-pyrazol-3-yl)oxy]acetamido}-3-hydroxybicyclo[2.2.2]octan-1-yl]acetamide]
EC50: > 2000 nM

O=C(COc1ccc(Cl)c(F)c1)NC12CCC(NC(=O)COc3ccc(Cl)c(F)c3)(CC1)C(=O)C2 [Compound 272, N,N′-(2-oxobicyclo[2.2.2]octane-1,4-diyl)bis[2-(4-chloro-3-fluorophenoxy)acetamide]]
EC50: < 10 nM
